Data as given in patent US7615564B2, “Isoquinoline derivatives having kinasae inhibitory activity and drugs containing the same” (Kirin Beer Kabushiki Kaisha, priority 2002, dated 2009).

Columns and labels:
[1] = target: T1, Recombinant Rho kinase (fused protein composed of bovine Rho kinase catalytic region and glutathione S-transferase) (Bos taurus, UniProt Q28021); assay: Rho kinase inhibitory activity (phosphorylation of S6 231-239 substrate with γ32P-ATP); type: biochemical; settings: concentration inhibiting substrate phosphorylation by 50%
T1 construct: fused protein composed of bovine Rho kinase catalytic region and glutathione S-transferase; glutathione S-transferase (GST); made in house; host or cells: insect cells infected with baculovirus
T1 sequence (Q28021 92-354 limits assumed): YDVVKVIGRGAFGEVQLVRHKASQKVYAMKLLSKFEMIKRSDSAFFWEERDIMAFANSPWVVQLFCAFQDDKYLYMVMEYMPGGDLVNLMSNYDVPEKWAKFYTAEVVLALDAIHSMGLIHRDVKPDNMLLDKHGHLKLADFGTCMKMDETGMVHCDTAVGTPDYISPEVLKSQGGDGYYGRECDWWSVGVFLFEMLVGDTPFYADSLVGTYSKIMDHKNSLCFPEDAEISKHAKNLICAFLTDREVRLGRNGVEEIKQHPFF
Method: This permits the substrate to be labeled with the radioisotope.
Thereafter, the substrate was adsorbed to a filter paper. ATP was washed away with a phosphoric acid solution, and the amount of the phosphorylated substrate was then measured with a liquid scintillation counter.

[2] = test system: Mouse-derived CCR2 overexpressing human-derived histiocyte lymphoma (U937/CCR2); assay: Leukocyte migration inhibitory activity (MCP-1 induced migration, CHEMOTAXICELL); type: cell-based; settings: U-937, test compound concentration 10 μg/ml, MCP-1 ligand, migration 1 hr
Method: Mouse-derived CCR2 overexpressing human-derived histiocyte lymphoma (U937/CCR2), was suspended in a 0.1% BSA-containing RPMI 1640 medium, to which a test compound had been added (5×10^6/ml), and the suspension was incubated for 20 min. A chemical solution (500 μl) (0.1% BSA-containing RPMI 1640 medium DMSO 1%), to which an MCP-1 ligand (1 μM) and the test compound had been added, was added to a 24-well plate. CHEMOTAXICELL was put thereon, and 200 μl of the cell suspension was added to the top layer, followed by migration under a 5% CO2 atmosphere at 37° C. for one hr. The number of cells, which had migrated to the lower chamber, was counted with a particle count analyzer (CDA-500, SYSMEX CORPORATION), and the percentage migration inhibition was calculated by the following equation: Migration inhibition (%)=(1−number of migrated cells in the presence of test compound/number of migrated cells in the absence of test compound)×100

Row | Structure (SMILES) | IC50 [1] | inhibition at 10 µg/mL [2]
1 | Clc1ccccc1CN1CCC(Nc2cccc3cnccc23)C1 (centres unmarked) [Example 1, N5-[1-(2-Chlorobenzyl)tetrahydro-1H-3-pyrrolyl]-5-isoquinolylamine] | 99 nM | 86%
2 | Clc1cccc(CN2CCC(Nc3cccc4cnccc34)C2)c1 (centres unmarked) [Example 2, N5-[1-(3-Chlorobenzyl)tetrahydro-1H-3-pyrrolyl]-5-isoquinolylamine] | 63 nM | 90%
3 | Clc1ccc(CN2CCC(Nc3cccc4cnccc34)C2)cc1 (centres unmarked) [Example 3, N5-[1-(4-Chlorobenzyl)tetrahydro-1H-3-pyrrolyl]-5-isoquinolylamine] | 66 nM | 101%
4 | Fc1ccc(CN2CCC(Nc3cccc4cnccc34)C2)cc1 (centres unmarked) [Example 4, N5-[1-(4-Fluorobenzyl)tetrahydro-1H-3-pyrrolyl]-5-isoquinolylamine] | 93 nM | 98%
5 | Fc1cccc(F)c1CN1CCC(Nc2cccc3cnccc23)C1 (centres unmarked) [Example 5, N5-[1-(2,6-Difluorobenzyl)tetrahydro-1H-3-pyrrolyl]-5-isoquinolylamine] | 73 nM | 93%
6 | Clc1cccc(Cl)c1CN1CCC(Nc2cccc3cnccc23)C1 (centres unmarked) [Example 6, N5-[1-(2,6-Dichlorobenzyl)tetrahydro-1H-3-pyrrolyl]-5-isoquinolylamine] | 140 nM | 
7 | Cc1ccc(CN2CCC(Nc3cccc4cnccc34)C2)cc1 (centres unmarked) [Example 7, N-(5-Isoquinolyl)-N-[1-(4-methylbenzyl)tetrahydro-1H-3-pyrrolyl]amine] | 96 nM | 103%
8 | CC(C)c1ccc(CN2CCC(Nc3cccc4cnccc34)C2)cc1 (centres unmarked) [Example 8, N5-[1-(4-Isopropylbenzyl)tetrahydro-1H-3-pyrrolyl]-5-isoquinolylamine] | 200 nM | 
9 | O=[N+]([O-])c1ccccc1CN1CCC(Nc2cccc3cnccc23)C1 (centres unmarked) [Example 9, N-(5-Isoquinolyl)-N-[1-(2-nitrobenzyl)tetrahydro-1H-3-pyrrolyl]amine] | 570 nM | 
10 | O=[N+]([O-])c1cccc(CN2CCC(Nc3cccc4cnccc34)C2)c1 (centres unmarked) [Example 10, N-(5-Isoquinolyl)-N-[1-(3-nitrobenzyl)tetrahydro-1H-3-pyrrolyl]amine] | 200 nM | 
11 | O=[N+]([O-])c1ccc(CN2CCC(Nc3cccc4cnccc34)C2)cc1 (centres unmarked) [Example 11, N-(5-Isoquinolyl)-N-[1-(4-nitrobenzyl)tetrahydro-1H-3-pyrrolyl]amine] | 660 nM | 
12 | O=[N+]([O-])c1cc(Cl)ccc1CN1CCC(Nc2cccc3cnccc23)C1 (centres unmarked) [Example 12, N5-[1-(4-Chloro-2-nitrobenzyl)tetrahydro-1H-3-pyrrolyl]-5-isoquinolylamine] | 1300 nM | 
13 | c1ccc(CN2CCC(Nc3cccc4cnccc34)C2)nc1 (centres unmarked) [Example 13, N-(5-Isoquinolyl)-N-[1-(2-pyridylmethyl)tetrahydro-1H-3-pyrrolyl]amine] | 480 nM | 
14 | c1cncc(CN2CCC(Nc3cccc4cnccc34)C2)c1 (centres unmarked) [Example 14, N-(5-Isoquinolyl)-N-[1-(3-pyridylmethyl)tetrahydro-1H-3-pyrrolyl]amine] | 590 nM | 
15 | c1cc(NC2CCN(Cc3ccncc3)C2)c2ccncc2c1 (centres unmarked) [Example 15, N-(5-Isoquinolyl)-N-[1-(4-pyridylmethyl)tetrahydro-1H-3-pyrrolyl]amine] | 1100 nM | 
16 | Nc1ccccc1CN1CCC(Nc2cccc3cnccc23)C1 (centres unmarked) [Example 16, N5-[1-(2-Aminobenzyl)tetrahydro-1H-3-pyrrolyl]-5-isoquinolylamine] | 210 nM | 99%
17 | Nc1ccc(CN2CCC(Nc3cccc4cnccc34)C2)cc1 (centres unmarked) [Example 18, N5-[1-(4-Aminobenzyl)tetrahydro-1H-3-pyrrolyl]-5-isoquinolylamine] | 230 nM | 94%
18 | Nc1cc(Cl)ccc1CN1CCC(Nc2cccc3cnccc23)C1 (centres unmarked) [Example 19, N5-[1-(2-Amino-4-chlorobenzyl)tetrahydro-1H-3-pyrrolyl]-5-isoquinolylamine] | 240 nM | 82%
19 | Clc1ccccc1CN1CCCC(Nc2cccc3cnccc23)C1 (centres unmarked) [Example 20, N5-[1-(2-Chlorobenzyl)-3-piperidyl]-5-isoquinolylamine] | 210 nM | 69%
20 | Clc1cccc(CN2CCCC(Nc3cccc4cnccc34)C2)c1 (centres unmarked) [Example 21, N5-[1-(3-Chlorobenzyl)-3-piperidyl]-5-isoquinolylamine] | 270 nM | 97%
21 | Clc1ccc(CN2CCCC(Nc3cccc4cnccc34)C2)cc1 (centres unmarked) [Example 22, N5-[1-(4-Chlorobenzyl)-3-piperidyl]-5-isoquinolylamine] |  | 80%

Row | Structure (SMILES) | IC50 [1] | inhibition at 10 µg/mL [2]
22 | c1ccc(CN2CCCC(Nc3cccc4cnccc34)C2)cc1 (centres unmarked) [Example 23, N-(1-Benzyl-3-piperidyl)-5-isoquinolylamine] | 240 nM | 
23 | Fc1cccc(F)c1CN1CCCC(Nc2cccc3cnccc23)C1 (centres unmarked) [Example 24, N5-[1-(2,6-Difluorobenzyl)-3-piperidyl]-5-isoquinolylamine] | 230 nM | 
24 | Clc1cccc(Cl)c1CN1CCCC(Nc2cccc3cnccc23)C1 (centres unmarked) [Example 25, N5-[1-(2,6-Dichlorobenzyl)-3-piperidyl]-5-isoquinolylamine] | 1200 nM | 
25 | Cc1ccc(CN2CCCC(Nc3cccc4cnccc34)C2)cc1 (centres unmarked) [Example 26, N-(5-Isoquinolinyl)-N-[1-(4-methylbenzyl)-3-piperidyl]amine] | 180 nM | 
26 | O=[N+]([O-])c1ccccc1CN1CCCC(Nc2cccc3cnccc23)C1 (centres unmarked) [Example 28, N-(5-Isoquinolinyl)-N-[1-(2-nitrobenzyl)-3-piperidyl]amine] | 580 nM | 
27 | O=[N+]([O-])c1cccc(CN2CCCC(Nc3cccc4cnccc34)C2)c1 (centres unmarked) [Example 29, N-(5-Isoquinolinyl)-N-[1-(3-nitrobenzyl)-3-piperidyl]amine] | 1900 nM | 
28 | O=[N+]([O-])c1ccc(CN2CCCC(Nc3cccc4cnccc34)C2)cc1 (centres unmarked) [Example 30, N-(5-Isoquinolinyl)-N-[1-(4-nitrobenzyl)-3-piperidyl]amine] | 1800 nM | 
29 | O=[N+]([O-])c1cc(Cl)ccc1CN1CCCC(Nc2cccc3cnccc23)C1 (centres unmarked) [Example 31, N5-[1-(4-Chloro-2-nitrobenzyl)-3-piperidyl]-5-isoquinolylamine] | 2300 nM | 
30 | c1ccc(CN2CCCC(Nc3cccc4cnccc34)C2)nc1 (centres unmarked) [Example 32, N-(5-Isoquinolinyl)-N-[1-(2-pyridylmethyl)-3-piperidyl]amine] | 1300 nM | 
31 | c1cncc(CN2CCCC(Nc3cccc4cnccc34)C2)c1 (centres unmarked) [Example 33, N-(5-Isoquinolinyl)-N-[1-(3-pyridylmethyl)-3-piperidyl]amine] | 1000 nM | 
32 | c1cc(NC2CCCN(Cc3ccncc3)C2)c2ccncc2c1 (centres unmarked) [Example 34, N-(5-Isoquinolinyl)-N-[1-(4-pyridylmethyl)-3-piperidyl]amine] | 1500 nM | 
33 | Nc1ccccc1CN1CCCC(Nc2cccc3cnccc23)C1 (centres unmarked) [Example 35, N5-[1-(2-Aminobenzyl)-3-piperidyl]-5-isoquinolylamine] | 270 nM | 
34 | Nc1cccc(CN2CCCC(Nc3cccc4cnccc34)C2)c1 (centres unmarked) [Example 36, N5-[1-(3-Aminobenzyl)-3-piperidyl]-5-isoquinolylamine] | 310 nM | 
35 | Nc1ccc(CN2CCCC(Nc3cccc4cnccc34)C2)cc1 (centres unmarked) [Example 37, N5-[1-(4-Aminobenzyl)-3-piperidyl]-5-isoquinolylamine] | 290 nM | 
36 | Nc1cc(Cl)ccc1CN1CCCC(Nc2cccc3cnccc23)C1 (centres unmarked) [Example 38, N5-[1-(2-Amino-4-chlorobenzyl)-3-piperidyl]-5-isoquinolylamine] | 400 nM | 
37 | c1c[nH]c(CN2CCCC(Nc3cccc4cnccc34)C2)c1 (centres unmarked) [Example 39, N-(5-Isoquinolinyl)-N-[1-(1H-2-pyrrolylmethyl)-3-piperidyl]amine] | 23 nM | 
38 | c1cc(NC2CCCN(Cc3cc[nH]c3)C2)c2ccncc2c1 (centres unmarked) [Example 40, N-(5-Isoquinolinyl)-N-[1-(1H-3-pyrrolylmethyl)-3-piperidyl]amine] | 670 nM | 
39 | c1csc(CN2CCCC(Nc3cccc4cnccc34)C2)c1 (centres unmarked) [Example 41, N-(5-Isoquinolinyl)-N-[1-(2-thienylmethyl)-3-piperidyl]amine] | 190 nM | 
40 | c1cc(NC2CCCN(Cc3ccsc3)C2)c2ccncc2c1 (centres unmarked) [Example 42, N-(5-Isoquinolinyl)-N-[1-(3-thienylmethyl)-3-piperidyl]amine] | 31 nM | 
41 | c1coc(CN2CCCC(Nc3cccc4cnccc34)C2)c1 (centres unmarked) [Example 43, N-[1-(2-Furylmethyl)-3-piperidyl]-N-(5-isoquinolyl)amine] | 200 nM | 
42 | c1cc(NC2CCCN(Cc3ccoc3)C2)c2ccncc2c1 (centres unmarked) [Example 44, N-[1-(3-Furylmethyl)-3-piperidyl]-N-(5-isoquinolyl)amine] | 110 nM | 
